These results are taken from ChEMBL document CHEMBL1201862, “PubChem BioAssay data set” (2004).

Active and inactive are the calls of the source.

One may read the EC50 as the concentration giving half of the maximal effect. As usually defined, the AC50 is the concentration at which the activity in the assay is half-maximal.

Series [1] in a line: cells. It is filed as functional, cell-based.
Series [2] can be described thus: cells. It is filed as functional, cell-based. The source holds these as a separate data set.
Series [3] addresses T1, Heat shock factor protein 1 (Mus musculus, UniProt P38532).
T1 sequence (P38532 whole entry): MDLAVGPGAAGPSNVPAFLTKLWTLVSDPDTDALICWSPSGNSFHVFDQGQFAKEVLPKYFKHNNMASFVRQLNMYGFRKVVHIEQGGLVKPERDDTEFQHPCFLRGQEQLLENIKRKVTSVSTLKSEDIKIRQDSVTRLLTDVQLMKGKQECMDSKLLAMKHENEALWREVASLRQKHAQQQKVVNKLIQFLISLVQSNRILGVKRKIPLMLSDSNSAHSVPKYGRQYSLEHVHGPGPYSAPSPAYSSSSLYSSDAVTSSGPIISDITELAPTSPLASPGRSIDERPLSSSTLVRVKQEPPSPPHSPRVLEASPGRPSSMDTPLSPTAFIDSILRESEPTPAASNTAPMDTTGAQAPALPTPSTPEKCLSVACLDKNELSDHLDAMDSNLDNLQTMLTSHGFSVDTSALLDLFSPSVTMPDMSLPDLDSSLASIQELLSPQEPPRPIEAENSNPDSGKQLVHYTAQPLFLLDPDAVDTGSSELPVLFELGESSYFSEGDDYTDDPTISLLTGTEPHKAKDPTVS
Nature of the series: HSF1 potentiators in luciferase reporter cells, confirmation, cell-based, NIH3T3, luminescence, dose retest (AID 435004).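 Also: stress induced by proteasome inhibitor MG132 added 30 min after compound; luciferase reporter driven by HSF1 response element in NIH3T3 cells; actives raise luminescence as potentiators of the MG132 stress response.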 It is filed as functional.

A further series has as its target X-box-binding protein 1 (Homo sapiens, UniProt P17861). It is filed as functional, Cricetulus griseus.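 Also: confirmatory dose-response counter-screen serving a CHOP assay.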
In series [4] the test system is BJ. Nature of the series: cytotoxicity toward Ras-transformed BJeLR fibroblasts, dose response, cell-based, alamar blue fluorescence, cherrypicked samples (AID 2631).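 Also: confirmatory dose-response assay in RAS-dependent BJ fibroblasts engineered with TERT, LT and ST, with cytotoxicity read by fluorescence.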 It is filed as functional. The conditions noted are these: Homo sapiens. In general terms: Resazurin is reduced to fluorescent resorufin, in cell work by metabolically active cells.
Series [5] in a line: Shn3 3'UTR reporter inhibitors, dose response, cell-based, Clone20 osteoblasts, firefly luciferase, cherry-picked (AID 624132).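 Also: firefly luciferase luminescence from reporter carrying the Shn3 3'UTR in osteoblasts.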 It is filed as functional.
A short description of series [6]: HepG2 cell cytotoxicity, dose response, cytotoxicity control for Shn3 inhibitor project, CellTiter-Glo, cherry-picked (AID 624134). It is filed as functional, cell-based. On the technique in general: Cellular ATP, detected with luciferase, serves as a proxy for viable cell number.
A short description of series [7]: control 3'UTR Renilla luciferase suppression, dose response, counter-screen for Shn3 inhibitor project, cell-based, Clone20-Shn3RL, cherry-picked (AID 624133). It is filed as functional. In general terms: The purpose of a counterscreen is to sort out artefacts and off-target activity.
The nature of series [8]: HEK293T cell cytotoxicity, dose response, cytotoxicity control for HIV Vif inhibitor project, cherry-picks (AID 652208). It is filed as functional, cell-based.
Series [9] deals with HEK293. Nature of the series: cells. The conditions noted are these: Homo sapiens.
The subject of series [10] is HEK293. Nature of the series: cells. The conditions noted are these: Homo sapiens. This is another data set of the same source.
Series [11] addresses T2, Tyrosine-protein phosphatase non-receptor type 7 (Homo sapiens, UniProt P35236).
T2 sequence (P35236 whole entry): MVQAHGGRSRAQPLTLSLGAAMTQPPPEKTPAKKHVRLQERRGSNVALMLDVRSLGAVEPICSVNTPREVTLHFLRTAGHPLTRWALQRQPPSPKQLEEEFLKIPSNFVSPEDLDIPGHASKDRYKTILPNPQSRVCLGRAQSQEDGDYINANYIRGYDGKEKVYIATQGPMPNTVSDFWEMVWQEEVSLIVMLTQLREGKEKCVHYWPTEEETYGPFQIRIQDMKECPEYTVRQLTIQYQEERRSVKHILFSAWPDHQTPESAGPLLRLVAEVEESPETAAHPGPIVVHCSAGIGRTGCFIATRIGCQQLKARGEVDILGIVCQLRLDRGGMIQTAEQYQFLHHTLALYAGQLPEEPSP
Description: inhibitors of human HePTP phosphatase, […], biochemical, absorbance, leukemia target (AID 521). It is filed as functional.

The target in series [12] is Protein-tyrosine kinase 2-beta (Homo sapiens, UniProt Q14289).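 Also: potency of inhibitors of PYK2 kinase phosphorylation of poly-GT substrate.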
Chain of Protein-tyrosine kinase 2-beta (Q14289 whole entry): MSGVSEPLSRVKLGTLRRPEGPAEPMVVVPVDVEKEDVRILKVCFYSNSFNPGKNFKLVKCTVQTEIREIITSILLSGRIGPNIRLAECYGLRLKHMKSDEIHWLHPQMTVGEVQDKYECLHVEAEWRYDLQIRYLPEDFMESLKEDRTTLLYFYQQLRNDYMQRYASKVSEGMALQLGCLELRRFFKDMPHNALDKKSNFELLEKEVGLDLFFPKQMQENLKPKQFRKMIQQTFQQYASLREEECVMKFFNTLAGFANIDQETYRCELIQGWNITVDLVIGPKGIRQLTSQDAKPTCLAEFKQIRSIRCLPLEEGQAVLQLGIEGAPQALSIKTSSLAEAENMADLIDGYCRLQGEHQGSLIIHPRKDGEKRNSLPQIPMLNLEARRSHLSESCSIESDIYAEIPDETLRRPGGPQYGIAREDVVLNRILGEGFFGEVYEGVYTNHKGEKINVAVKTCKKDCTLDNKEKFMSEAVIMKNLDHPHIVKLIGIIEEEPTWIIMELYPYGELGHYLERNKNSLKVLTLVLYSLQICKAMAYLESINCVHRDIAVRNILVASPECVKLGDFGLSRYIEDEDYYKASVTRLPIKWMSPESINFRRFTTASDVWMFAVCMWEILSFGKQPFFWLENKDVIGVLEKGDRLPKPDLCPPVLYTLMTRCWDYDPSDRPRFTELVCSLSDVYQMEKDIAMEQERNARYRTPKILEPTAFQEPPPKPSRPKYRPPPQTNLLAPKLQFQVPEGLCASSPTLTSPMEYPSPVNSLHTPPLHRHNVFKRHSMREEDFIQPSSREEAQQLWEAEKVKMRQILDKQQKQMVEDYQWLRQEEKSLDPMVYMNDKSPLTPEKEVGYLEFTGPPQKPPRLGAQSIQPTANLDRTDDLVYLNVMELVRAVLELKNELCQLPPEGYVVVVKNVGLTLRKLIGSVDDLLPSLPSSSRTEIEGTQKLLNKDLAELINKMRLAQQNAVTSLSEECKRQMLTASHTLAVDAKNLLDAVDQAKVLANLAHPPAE
The target of series [13] is T3, Beta-2 adrenergic receptor (Homo sapiens, UniProt P07550). Nature of the series: Dose response for HTS for Beta-2AR agonists via FAP method from Powderset1. It is filed as functional.
T3 sequence (P07550 whole entry): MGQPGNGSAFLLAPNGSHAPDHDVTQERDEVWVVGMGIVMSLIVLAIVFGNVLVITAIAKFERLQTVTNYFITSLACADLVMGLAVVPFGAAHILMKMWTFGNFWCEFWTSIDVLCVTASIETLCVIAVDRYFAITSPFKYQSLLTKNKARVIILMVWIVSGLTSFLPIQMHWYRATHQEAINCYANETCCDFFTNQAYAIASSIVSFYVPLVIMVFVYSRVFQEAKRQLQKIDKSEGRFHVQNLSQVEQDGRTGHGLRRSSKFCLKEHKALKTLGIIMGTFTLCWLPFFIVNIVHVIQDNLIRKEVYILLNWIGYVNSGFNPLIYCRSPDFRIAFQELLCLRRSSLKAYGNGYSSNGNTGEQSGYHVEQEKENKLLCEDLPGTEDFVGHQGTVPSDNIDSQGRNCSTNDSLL
The target in series [14] is T3, Beta-2 adrenergic receptor. Nature of the series: beta2AR agonists driving receptor internalization, dose response, cell-based, FAP fluorogen, flow cytometry, cherry pick 1 (AID 588763). It is filed as functional.
Series [15] addresses Tyrosine-protein phosphatase non-receptor type 11 (Homo sapiens, UniProt Q06124). Nature of the series: SHP2 phosphatase inhibition, dose response, selectivity assay for STEP inhibitor project, biochemical (AID 602367). It is filed as functional. The settings on record: read-out: IC50_Mean.
Series [16] deals with Tyrosine-protein phosphatase non-receptor type 5 (Homo sapiens, UniProt P54829). Description: STEP phosphatase inhibitors, confirmation, biochemical, fluorescence intensity, uHTS hits (AID 602372). It is filed as functional. The settings on record: read-out: IC50_Mean.
Chain of Tyrosine-protein phosphatase non-receptor type 5 (P54829 whole entry): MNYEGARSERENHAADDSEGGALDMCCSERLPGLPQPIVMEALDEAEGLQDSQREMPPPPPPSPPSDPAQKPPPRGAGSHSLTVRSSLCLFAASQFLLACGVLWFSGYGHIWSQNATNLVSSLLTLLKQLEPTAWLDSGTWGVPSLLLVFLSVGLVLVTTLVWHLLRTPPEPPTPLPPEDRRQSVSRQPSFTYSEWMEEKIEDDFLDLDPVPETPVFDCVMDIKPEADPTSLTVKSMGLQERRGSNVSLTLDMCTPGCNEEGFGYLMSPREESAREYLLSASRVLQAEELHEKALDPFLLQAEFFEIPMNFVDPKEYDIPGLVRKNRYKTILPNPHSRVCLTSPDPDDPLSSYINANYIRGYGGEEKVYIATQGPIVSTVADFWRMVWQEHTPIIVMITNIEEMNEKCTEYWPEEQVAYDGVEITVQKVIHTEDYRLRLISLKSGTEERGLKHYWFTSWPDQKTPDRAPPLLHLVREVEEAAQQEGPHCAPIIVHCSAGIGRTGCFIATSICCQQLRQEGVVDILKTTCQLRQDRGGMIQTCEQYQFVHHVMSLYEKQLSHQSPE
Series [17] addresses Dual specificity protein phosphatase 3 (Homo sapiens, UniProt P51452). Description: VHR phosphatase inhibition, dose response, selectivity assay for STEP inhibitor project, biochemical (AID 602374). It is filed as functional. The settings on record: read-out: IC50_Mean.
The next series addresses Cytochrome P450 2C9 (Homo sapiens, UniProt P11712).
In series [18] the test system is BJ. Nature of the series: cytotoxicity toward BJ-TERT fibroblasts, dose response, cell-based, RAS-independent, luminescence (AID 1933). The settings on record: Homo sapiens. It is filed as functional.
Series [19] relates to BJ. Description: cells. It is filed as functional, cell-based. The conditions noted are these: Homo sapiens.
For series [20], the system named is BJ. Nature of the series: cytotoxicity toward BJ-TERT-LT-ST fibroblasts, dose response, cell-based, RAS-independent, luminescence (AID 1935).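 Also: BJ fibroblasts immortalized with TERT plus LT and ST oncogenes.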 It is filed as functional. The conditions noted are these: Homo sapiens.
Series [21] in a line: cytotoxicity toward DRD oncogenic fibroblasts, dose response, cell-based, non-viral oncogenic, luminescence (AID 1934). It is filed as functional. The settings on record: Homo sapiens.
Series [22] is described as follows: cells. It is filed as functional, cell-based. This is another data set of the same source.
For series [23], the target named is Nuclear receptor subfamily 0 group B member 1 (Homo sapiens, UniProt P51843). It is filed as functional, cell-based.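 Also: HEK293T cells transfected with SF-1 and DAX-1 plus StAR promoter luciferase reporter.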
Chain of Nuclear receptor subfamily 0 group B member 1 (P51843 whole entry): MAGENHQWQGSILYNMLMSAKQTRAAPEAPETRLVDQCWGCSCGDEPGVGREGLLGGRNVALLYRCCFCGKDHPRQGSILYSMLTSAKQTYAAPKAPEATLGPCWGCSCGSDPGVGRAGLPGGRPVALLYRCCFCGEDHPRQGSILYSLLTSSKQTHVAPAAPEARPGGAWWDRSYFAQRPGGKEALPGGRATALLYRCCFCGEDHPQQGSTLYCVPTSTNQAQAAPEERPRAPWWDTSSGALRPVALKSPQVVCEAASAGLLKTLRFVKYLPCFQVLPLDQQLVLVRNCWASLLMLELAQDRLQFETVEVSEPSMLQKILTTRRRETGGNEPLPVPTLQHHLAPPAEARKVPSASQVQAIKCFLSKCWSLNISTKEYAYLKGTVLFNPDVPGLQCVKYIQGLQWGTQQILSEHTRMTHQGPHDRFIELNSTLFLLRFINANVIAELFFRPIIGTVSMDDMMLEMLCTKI
The next series concerns the target Paired box protein Pax-8 (Homo sapiens, UniProt Q06710). Description: inhibitors of PAX8-driven TPO luciferase reporter, dose response, RMG-I cells, cherry-pick (AID 687027).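 Also: luciferase reporter driven by Pax8 target thyroperoxidase promoter measured by SteadyGlo luminescence.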 It is filed as functional, cell-based.
Series [24] is described as follows: inhibitors of intracellular T. cruzi replication, confirmation, NIH3T3 host cells, beta-gal luminescence (AID 2044).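 Also: intracellular parasites grown in NIH/3T3 mouse fibroblasts as host cells; luminescent beta-galactosidase reporter signal from transgenic T. cruzi replicating inside host cells; inhibitors lower the luminescence signal.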 It is filed as functional, cell-based.
Series [25] in a line: cytotoxicity toward NIH3T3 fibroblasts, dose response, counter-screen, cell-based, ATP luminescence, mouse fibroblasts (AID 2010).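 Also: cells exposed to compound for about 90 hours before reading.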 It is filed as functional.
Series [26] concerns the target Fructose-bisphosphate aldolase (Mycobacterium tuberculosis, UniProt P9WQA3). Nature of the series: Fluorescence-based biochemical high throughput dose response assay for inhibitors of the fructose-bisphosphate aldolase (FBA) of M. tuberculosis. It is filed as functional.
The target of a further series is Protein Tat (Human immunodeficiency virus type 1 group M subtype B (isolate HXB2)(HIV-1), UniProt P04608). It is filed as functional.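 Also: tat binding to TAR RNA read out by fluorescence polarization.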
Chain of Protein Tat (P04608 whole entry): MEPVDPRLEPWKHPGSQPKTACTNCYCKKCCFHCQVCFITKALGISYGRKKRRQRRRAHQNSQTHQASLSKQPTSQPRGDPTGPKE
Series [27] deals with Peroxisome proliferator-activated receptor gamma/Nuclear receptor coactivator 2 (Homo sapiens, UniProt P37231). It is filed as functional.
For series [28], the target named is Peroxisome proliferator-activated receptor gamma/Nuclear receptor coactivator 1 (Homo sapiens, UniProt P37231). It is filed as functional.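 Also: agonist potency as compounds enhance coactivator SRC-1 recruitment to PPARgamma.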
Series [29] concerns the target Peroxisome proliferator-activated receptor gamma/Nuclear receptor coactivator 3 (Homo sapiens, UniProt P37231). It is filed as functional.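 Also: agonist potency for raising coactivator recruitment to the receptor.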
The nature of series [30]: growth suppression of PTEN-null colon cells, dose response, cell-based, HCT116 PTEN knockout (AID 1047).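 Also: HCT116 colon tumor cells with PTEN knocked out; cells exposed to compound for 60 hours before readout; potency for loss of cell viability measured by luminescence.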 It is filed as functional.
Series [31] is described as follows: growth suppression of beta-catenin-knockout colon cells, dose response, cell-based, HCT116, human colon tumor (AID 1045).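 Also: HCT116 colon tumor cells with beta catenin knocked out; cells exposed to compound for 60 hours.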 It is filed as functional.
Series [32] has as its target T3, Beta-2 adrenergic receptor. Description: Dose response for HTS for Beta-2AR agonists via FAP method from Powderset3. It is filed as functional.

Chain of Paired box protein Pax-8 (Q06710 whole entry): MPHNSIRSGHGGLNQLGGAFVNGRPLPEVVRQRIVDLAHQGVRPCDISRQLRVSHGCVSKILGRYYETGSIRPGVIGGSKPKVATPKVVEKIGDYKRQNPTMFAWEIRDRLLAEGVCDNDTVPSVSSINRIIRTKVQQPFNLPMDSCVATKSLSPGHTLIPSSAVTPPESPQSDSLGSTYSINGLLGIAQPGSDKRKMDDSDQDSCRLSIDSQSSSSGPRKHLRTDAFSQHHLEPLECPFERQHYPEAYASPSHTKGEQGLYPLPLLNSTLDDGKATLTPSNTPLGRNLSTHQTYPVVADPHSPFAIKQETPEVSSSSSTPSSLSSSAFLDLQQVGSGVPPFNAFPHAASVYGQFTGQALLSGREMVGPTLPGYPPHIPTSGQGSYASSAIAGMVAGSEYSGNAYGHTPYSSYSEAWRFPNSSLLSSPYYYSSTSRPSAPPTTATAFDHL
Chain of Dual specificity protein phosphatase 3 (P51452 whole entry): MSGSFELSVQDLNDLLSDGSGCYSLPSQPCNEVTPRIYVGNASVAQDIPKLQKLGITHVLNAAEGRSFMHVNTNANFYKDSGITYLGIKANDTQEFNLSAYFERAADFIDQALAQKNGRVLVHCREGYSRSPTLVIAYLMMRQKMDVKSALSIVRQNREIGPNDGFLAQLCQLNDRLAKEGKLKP
Chain of Tyrosine-protein phosphatase non-receptor type 11 (Q06124 whole entry): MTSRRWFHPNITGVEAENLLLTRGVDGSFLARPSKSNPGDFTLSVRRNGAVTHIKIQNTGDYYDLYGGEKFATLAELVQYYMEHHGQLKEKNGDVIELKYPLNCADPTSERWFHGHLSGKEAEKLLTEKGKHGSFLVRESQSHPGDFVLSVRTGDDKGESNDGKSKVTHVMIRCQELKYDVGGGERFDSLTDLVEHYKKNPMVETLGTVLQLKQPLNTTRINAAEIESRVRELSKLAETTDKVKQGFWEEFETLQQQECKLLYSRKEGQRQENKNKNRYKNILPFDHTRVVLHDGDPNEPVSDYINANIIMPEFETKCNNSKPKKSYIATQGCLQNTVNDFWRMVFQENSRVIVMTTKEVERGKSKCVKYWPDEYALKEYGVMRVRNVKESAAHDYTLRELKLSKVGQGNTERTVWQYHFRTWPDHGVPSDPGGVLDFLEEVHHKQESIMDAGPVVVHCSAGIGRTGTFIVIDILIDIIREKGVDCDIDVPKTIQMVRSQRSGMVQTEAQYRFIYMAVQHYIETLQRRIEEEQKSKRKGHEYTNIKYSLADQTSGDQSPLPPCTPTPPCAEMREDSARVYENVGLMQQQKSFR
Chain of Fructose-bisphosphate aldolase (P9WQA3 whole entry): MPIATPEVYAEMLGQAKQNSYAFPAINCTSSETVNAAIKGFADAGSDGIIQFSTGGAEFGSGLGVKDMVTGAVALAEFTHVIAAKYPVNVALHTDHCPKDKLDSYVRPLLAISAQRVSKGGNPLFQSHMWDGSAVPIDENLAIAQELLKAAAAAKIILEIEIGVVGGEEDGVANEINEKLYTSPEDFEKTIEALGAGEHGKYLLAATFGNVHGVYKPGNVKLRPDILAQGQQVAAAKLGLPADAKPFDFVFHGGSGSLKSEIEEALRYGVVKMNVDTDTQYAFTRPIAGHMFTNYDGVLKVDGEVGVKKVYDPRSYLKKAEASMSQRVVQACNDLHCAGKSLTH
Chain of Cytochrome P450 2C9 (P11712 whole entry): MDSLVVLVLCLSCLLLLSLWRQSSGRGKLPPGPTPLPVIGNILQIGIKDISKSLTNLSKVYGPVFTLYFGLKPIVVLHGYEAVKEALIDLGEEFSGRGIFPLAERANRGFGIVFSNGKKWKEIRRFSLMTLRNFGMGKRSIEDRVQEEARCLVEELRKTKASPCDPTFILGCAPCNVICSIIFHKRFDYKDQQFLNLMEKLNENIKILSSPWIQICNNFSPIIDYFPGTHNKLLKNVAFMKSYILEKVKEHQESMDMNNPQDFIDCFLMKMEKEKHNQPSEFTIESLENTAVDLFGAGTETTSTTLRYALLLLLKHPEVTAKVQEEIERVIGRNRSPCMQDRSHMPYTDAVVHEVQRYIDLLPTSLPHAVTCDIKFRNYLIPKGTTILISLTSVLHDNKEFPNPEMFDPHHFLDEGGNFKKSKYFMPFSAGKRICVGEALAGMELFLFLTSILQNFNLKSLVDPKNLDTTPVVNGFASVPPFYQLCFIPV
Chain of X-box-binding protein 1 (P17861 whole entry): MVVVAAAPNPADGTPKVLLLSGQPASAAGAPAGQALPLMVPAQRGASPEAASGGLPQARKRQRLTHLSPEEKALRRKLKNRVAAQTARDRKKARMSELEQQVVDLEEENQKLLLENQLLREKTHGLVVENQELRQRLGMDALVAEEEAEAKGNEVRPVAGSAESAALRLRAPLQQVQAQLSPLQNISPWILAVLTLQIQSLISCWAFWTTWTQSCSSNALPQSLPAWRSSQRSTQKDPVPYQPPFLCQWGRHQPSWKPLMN

With `Cc1cc(Cl)n2c(nc3cc(F)c(F)cc32)c1C#N`, the EC50 was > 350 µM (not active) in “cells [1]”; 54.5 µM (active) in the series “cells [2]”; 3.35 µM (active) in series [3]; 0.139 µM (inconclusive) in the series on BJ [4]; > 59.6 µM (inactive) in the series on HEK293 [9]; > 59.6 µM (inactive) in the series with HEK293 [10]. For the same molecule, the “Absolute IC50 (XBP1)” value on X-box-binding protein 1 turned out to be 10 µM. Besides, the AC50 in series [5] is 3.56 µM (active); in [6], 14.8 µM (active); in series [7], 6.62 µM (active); in series [8], 4.49 µM (active).
Regarding `CCc1ccc(OCC(=O)Nc2ccc(-c3nc4ccccc4o3)c(O)c2)cc1`, the IC50 in series [11] was 5.28 µM (active); in [12] it was > 69.5 µM (not active); in series [15], 0.368 µM (active); in [16], 3.98 µM (active); in series [17], 0.767 µM (active). For the same molecule, the EC50 was 0.261 µM (active) in [13] and 0.476 µM (active) in [14]. Further, at Cytochrome P450 2C9, the AC50 result is recorded as “inconclusive”.
As to `CCOC(=O)N1CCC(NC(=O)c2ccc3c(c2)N=C(C)c2c(C)ccc(C)c2S3)CC1`, the EC50 with BJ [18] is 1.52 µM (active); in the series with BJ [19], 29.3 µM (active); in the series with BJ [20], 1.43 µM (active); in series [21], 1.12 µM (active). The IC50 (in “cells [22]”; in [23]) was > 67.5 µM (inactive) each time. Also, at Paired box protein Pax-8, the AC50 was 3.05 µM (active).
In the case of `Cc1c(C(=O)Nc2ccc(Cl)cc2)c2ccccn2c1CCc1ccncc1`, the EC50 in [24] was 2.16 µM (active); in [25] it was > 30 µM (not active). Also, the IC50 in series [26] was 0.468 µM (active); on Protein Tat, > 100 µM (active).
For `CC(C)Cc1nc2sc3c(NCc4ccco4)ncnc3c2c2c1COC(C)(C)C2`, the EC50 in [27] was > 79.4 µM (not active); in series [28] it was > 79.4 µM (not active); in series [29] it was > 79.4 µM (not active); in [30], 14.3 µM (active); in [31], 14 µM (active); in series [14], 0.615 µM (active). Further, the EC50 in series [32] is 0.0238 µM (active).
